According to patent publication US10596270B2, “Anti-folate receptor antibody conjugates, compositions comprising anti-folate receptor antibody conjugates, and methods of making and using anti-folate receptor antibody conjugates” (Sutro Biopharma, Inc., priority 2017, dated 2020):
Substitutions are numbered along the chain they refer to. Read-outs that look alike come from different tables or passages of the source. Square brackets hold non-standard residues; d marks the D form. Peptide text beside a SMILES is read from it. * marks the point of attachment. Dolaproine = CO[C@@H]([C@@H]1CCCN1)[C@@H](C)C(=O)O; Dil = CC[C@H](C)[C@H](NC)[C@@H](CC(=O)O)OC; X1 = C[C@@H](N*)[C@@H](O)c1ccccc1; NMeV = CN[C@H](C(=O)O)C(C)C

How the values were obtained:
[1] = tested on: MES-SA cells; test: Free drug cell killing on parental MES-SA cells; format: cell-based; conditions: MEA-SA (parental) cells, No GF120918
From the text: (§1) To evaluate if free drug (I) is specifically a substrate of P-glycoprotein (PgP), which is responsible for cisplatin-resistance in some of the ovarian cancer cell lines (Stordal et al. 2012. PLoS One 7(7)), the free drug cell killing activities were investigated on PgP over-expressing MES-SA/MX2 cell line and the parental MES-SA cells. The cell killing activity of free drug (I), free drug (II) and a control free drug (MMAE, designated “III”) on the PgP-overexpressing MES-SA/MX2 cells were reduced by different levels compared to their activity on parental MES-SA cells. The MES-SA/MX2 cells were also treated with PgP inhibitor GF120918 (5 μM) to further investigate if the observed cell killing reduction is contributed by the presence of PgP on the cell surface.

[2] = tested on: cell line tested; test: Free drug in vitro cytotoxicity, various cell lines; format: cell-based; conditions: for cytotoxic activity of released free drugs: in words
[3] = tested on: P-glycoprotein (PgP); test: Free drug cell killing on PgP over-expressing MES-SA/MX2 cells with or without PgP inhibitor GF120918; format: cell-based; conditions: human, MES-SA/MX2 cells (PgP over-expressing)
From the text: as §1

[4] = tested on: MES-SA/MX2 cells (PgP over-expressing); test: as above; format: cell-based; conditions: for change in cell killing EC50 in the presence and absence of PgP inhibitor GF120918: GF120918 5 μM
From the text: as §1

[5] = Body weight of rats given free drugs; format: in vivo, rat; conditions: free drug (I) 0.4 and 1 mg/kg; free drug (II) 0.4 mg/kg; IV bolus
Protocol: To assess the pharmacokinetic profile of free drug (I), female Sprague-Dawley rats (mean body weight 250 g) were given either a 0.4 mg/kg or 1 mg/kg dose by IV bolus administration (N=three animal per dose level) via an indwelling jugular vein catheter. Blood samples were collected at […], 1, 2, 8, 24, 32, 48, and 72 hour post-dose. Levels of free drug (I) and (II) were measured by LC-MS/MS and non-compartmental pharmacokinetic analysis was conducted using Phoenix WinNonlin Version 6.4 (Pharsight Corporation). The PK of free drug (I) could not be estimated due to the fact that concentrations of (I) increased from 2 to 8 hours and were undetectable thereafter.

[6] = tested on: Igrov1 cells; test: In vitro cell killing (ADCs, free drugs), Igrov1 cells; format: cell-based; conditions: for EC50: Homo sapiens, IGROV-1; for Span: Igrov1 cells, Table 26
Protocol: The candidate antibody-drug conjugates were tested in cell killing on FolRα-expressing cells, including KB, Igrov1, HeLa and JEG3.

[7] = Pharmacokinetics of free drugs in Sprague-Dawley rats; format: in vivo, rat; conditions: for C0 / Cmax / AUC(0-t) / AUC(0-inf) / clearance / half-life / Vd: rat, blood, female Sprague-Dawley rats; for AUC(0-t): read-out: AUC0-last ± SE; for half-life: read-out: Terminal t1/2 (converted); for Vd: read-out: VSS
Protocol: Blood samples were collected at […], 1, 2, 8, 24, 32, 48, and 72 hour post-dose. Levels of free drug (I) and (II) were measured by LC-MS/MS and non-compartmental pharmacokinetic analysis was conducted using Phoenix WinNonlin Version 6.4 (Pharsight Corporation). The PK of free drug (I) could not be estimated due to the fact that concentrations of (I) increased from 2 to 8 hours and were undetectable thereafter.

[8] = tested on: A549 cells; test: In vitro cell killing (ADCs, free drugs), FolRα-negative A549 cells; format: cell-based; conditions: for Span: A549 cells, Table 26, NK = No Killing; for EC50: Homo sapiens, A549
From the text: Cytotoxic activities of the two ADC molecules were compared in the presence of excess un-conjugated “naked” antibody as competitior, on cells that were positive FolRα expression (Igrov1 and OVCAR3) and on cells that were negative for FolRα expression (A549).

[9] = tested on: MC38-hFolRα tumors; test: MC38-hFOLR1 tumor model, combination with Avelumab; format: in vivo; conditions: ADC Molecule 4 10 or 15 mg/kg once IV; Avelumab q3dx3 intraperitoneally
[10] = target: T1, human FOLR1-HIS (Homo sapiens, UniProt P15328); test: Biacore kinetics (surface plasmon resonance); format: binding; conditions: humanized 6D1 (2060) antibodies, Table 9
T1 construct: HIS
T1 sequence (P15328 25-234): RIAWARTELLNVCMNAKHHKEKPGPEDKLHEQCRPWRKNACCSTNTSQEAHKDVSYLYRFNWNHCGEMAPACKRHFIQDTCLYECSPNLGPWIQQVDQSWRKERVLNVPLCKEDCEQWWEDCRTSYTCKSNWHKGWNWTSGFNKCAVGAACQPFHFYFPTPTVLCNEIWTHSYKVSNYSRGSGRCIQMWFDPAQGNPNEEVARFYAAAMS
Protocol: Anti-Fc polyclonal antibodies were immobilized onto a CM5 chip (GE Life Sciences) using amine coupling chemistry (from Amine Coupling Kit, GE Life Sciences). The immobilization steps were carried out at a flow rate of 25 μL/min in 1×HBS-EP+ buffer (GE Life Sciences; 10× Stock diluted before use). The sensor surfaces were activated for 7 min with a mixture of N-hydroxysuccinimide (NHS, 0.05 M) and 1-ethyl-3-(3-dimethylaminopropyl)-carbodiimide (EDC, 0.2 M). The anti-Fc polyclonal antibodies were injected over all 4 flow cells at a concentration of […]/mL in 10 mM sodium acetate, pH 4.5, for 7 min. Ethanolamine (1 M, pH 8.5) was injected for 7 min to block any remaining activated groups. An average of 12,000 response units (RU) of capture antibody was immobilized on each flow cell.
Off-rate and kinetic binding experiments were performed at 25° C. using 1×HBS-EP+ buffer. Test and control antibodies were injected over the anti-Fc surface at concentrations of 5-10 μg/mL for 12 seconds at a flow rate of 10 μL/min on flow cells 2, 3 and 4, followed by a buffer wash for 30 seconds at the same flow rate. Kinetic characterization of antibody samples was carried out with a single concentration of antigen (for off-rate ranking) or a 1:2 dilution series of antigen (for kinetic characterization) and 1 injection of 0 nM antigen. […] Between each ligand capture and analyte binding cycle, regeneration was carried out using 2 injections of 10 mM glycine pH 2.0 for 30 seconds at 30 μL/min, followed by a 30 second buffer wash step.
The data were fit with the Biacore T200 Evaluation software, using a 1:1 Langmuir binding model. KD (affinity, nM) was determined as a ratio of the kinetic rate constants calculated from the fits of the association and dissociation phases.

[11] = tested on: FOLR1-positive Igrov1 cells; test: Secondary antibody cell killing assay, Igrov1 cells; format: cell-based; conditions: Table 9; for EC50: read-out: Igrov 2° Antibody Cell Killing, Nb-SC239 EC50
From the text: FOLR1-positive KB cells were obtained from ATCC, and FOLR1-positive Igrov1 cells were obtained from NIH. The cells were maintained in Ham's F-12: high glucose DMEM (50:50) (Corning, Cellgro-Mediatech) supplemented with 10% heat-inactivated fetal bovine serum (Corning, Cellgro-Mediatech, Manassas, Va.), 1% Penicillin/Streptomycin (Corning, Cellgro-Mediatech, Manassas, Va.) and 2 mmol/L-glutamax (Thermo Fisher Scientific, Waltham, Mass.). Adherent cells were washed twice with calcium and magnesium-free Hanks Balanced Salt Solution (HBSS), harvested with HYQ® TASE™ (Hyclone; Thermo Fisher Scientific, Waltham, Mass.) and counted by the Vi-CELL Cell Viability Analyzers (Beckman Coulter, Indianapolis, Ind.). A total of 625 cells were seeded in each well of a 384-well flat bottom white polystyrene plate. Lead antibodies were formulated at 4-fold starting concentration in the cell culture medium and filtered through MultiScreenHTS 96-Well Filter Plates (Millipore; Billerica, Mass.). […] Assay plates were cultured at 37° C. in a CO2 incubator for 120 hrs before assay. For cell viability measurement, 30 μL of Cell Titer-Glo® reagent (Promega Corp. Madison, Wis.) was added into each well, and plates were processed as per product instructions. Relative luminescence was measured on an ENVISION® plate reader (Perkin-Elmer; Waltham, Mass.). Relative luminescence readings were converted to percent viability using untreated cells as controls. Data was fitted with non-linear regression analysis, using a log(inhibitor) vs. response-variable slope, 4 parameter fit with GraphPad Prism (GraphPad v 5.0, Software; San Diego, Calif.). Data was expressed as relative cell viability (ATP content) % vs. dose of antibody.

[12] = with GF120918 (5 μM), MEA-SA/MX2 cells, with PgP inhibitor GF120918 (5 μM)
[13] = MEA-SA/MX2 cells (PgP over-expressing), No GF120918
[14] = MEA-SA/MX2 cells, with PgP inhibitor GF120918 (5 μM)

CN[C@H](C(=O)N[C@H](C(=O)N(C)[C@H](/C=C(\C)C(=O)O)C(C)C)C(C)(C)C)C(C)(C)c1cccc(N)c1 [free drug (I)]
EC50 ([1]; Homo sapiens, MES-SA): 6 nM | Span [1]: 100% | EC50 ([2]; depending on the cell line tested, read-out: cytotoxic activity in vitro EC50): 0.5 to 20 nM | cytotoxic activity of released free drugs [2]: comparable cytotoxic activity | EC50 [3, 12]: 6.4 nM | EC50 [3, 13]: 50 nM | change in cell killing EC50 in the presence and absence of PgP inhibitor GF120918 [4]: 8 fold | Span [4, 13]: 100% | Span [4, 14]: 99% | body weight of the animals [5]: did not have an effect on the body weight | EC50 [6]: 2.4 nM | Span [6]: 92% | plasma level of free drug after dosing ([7]; 0.4 or 1 mg/kg IV bolus, data not shown): undetectable at 24 hours post dose | clearance relative to the other free drug ([7]; IV bolus): more rapid than that of free drug (II) | PK of free drug (I) in rat vs. free drug (II) ([7]; Table 28): Free drug (I) has faster clearance | C0 ([7]; IV bolus, dose level 0.1 mg/kg): 6.81 ng/mL | Cmax ([7]; IV bolus, dose level 0.1 mg/kg): 5.82 ± 0.69 ng/mL | AUC(0-t) ([7]; IV bolus, dose level 0.1 mg/kg): 11 ± 2.1 ng·h/mL | C0 ([7]; IV bolus, dose level 0.4 mg/kg): 15.5 ng/mL | Cmax ([7]; IV bolus, dose level 0.4 mg/kg): 12.8 ± 2.1 ng/mL | AUC(0-t) ([7]; IV bolus, dose level 0.4 mg/kg): 23.9 ± 2.6 ng·h/mL | Span [8]: 81% | EC50 [8]: 11 nM

COc1cc2cc(c1Cl)N(C)C(=O)C[C@H](OC(=O)[C@H](C)N(C)C(=O)CCC(C)(C)S)[C@]1(C)O[C@H]1[C@H](C)[C@@H]1C[C@@](O)(NC(=O)O1)[C@H](OC)/C=C/C=C(/C)C2 [free drug (II)]
EC50 ([1]; Homo sapiens, MES-SA): 1.9 nM | Span [1]: 100% | cytotoxic activity of released free drugs [2]: comparable cytotoxic activity | EC50 [3, 12]: 1.7 nM | EC50 [3, 13]: 28 nM | change in cell killing EC50 in the presence and absence of PgP inhibitor GF120918 [4]: 17 fold | Span [4, 13]: 100% | Span [4, 14]: 98% | body weight of the animals [5]: progressive body weight loss | EC50 [6]: 4.9 nM | Span [6]: 90% | AUC(0-inf) ([7]; IV bolus, dose level 0.1 mg/kg): 129 ng·h/mL | C0 ([7]; IV bolus, dose level 0.1 mg/kg): 10.7 ng/mL | Cmax ([7]; IV bolus, dose level 0.1 mg/kg): 9.31 ± 2.19 ng/mL | clearance ([7]; IV bolus, dose level 0.1 mg/kg): 12.9 mL/min/kg | AUC(0-t) ([7]; IV bolus, dose level 0.1 mg/kg): 96.9 ± 11 ng·h/mL | half-life ([7]; IV bolus, dose level 0.1 mg/kg): 22.4 h | Vd ([7]; IV bolus, dose level 0.1 mg/kg): 15.8 L/kg | AUC(0-inf) ([7]; IV bolus, dose level 0.4 mg/kg): 242 ng·h/mL | C0 ([7]; IV bolus, dose level 0.4 mg/kg): 62.5 ng/mL | Cmax ([7]; IV bolus, dose level 0.4 mg/kg): 53.3 ± 19 ng/mL | clearance ([7]; IV bolus, dose level 0.4 mg/kg): 27.7 mL/min/kg | AUC(0-t) ([7]; IV bolus, dose level 0.4 mg/kg): 211 ± 70 ng·h/mL | half-life ([7]; IV bolus, dose level 0.4 mg/kg): 44.3 h | Vd ([7]; IV bolus, dose level 0.4 mg/kg): 44.1 L/kg | Span [8]: 81% | EC50 [8]: 7.7 nM

CC[C@H](C)[C@@H]([C@@H](CC(=O)N1CCC[C@H]1[C@H](OC)[C@@H](C)C(=O)N[C@H](C)[C@@H](O)c1ccccc1)OC)N(C)C(=O)[C@@H](NC(=O)[C@@H](NC)C(C)C)C(C)C [free drug (III), MMAE] (H-[NMeV]V[Dil][Dolaproine]-X1)
EC50 [1]: 0.75 nM | Span [1]: 100% | change in cell killing EC50 in the presence and absence of PgP inhibitor GF120918 [4]: 111 fold | EC50 [4, 13]: 111 nM | Span [4, 13]: 100% | EC50 [4, 14]: 1 nM | Span [4, 14]: 99%

Avelumab
initial tumor response [9]: tumor stasis until approximately day 7

B1: SRP2060-E10: affinity-matured humanized 6D1; VH SEQ ID NO 363; VL H6D1-LC4 SEQ ID NO 368 (antibody, V domains shown)
VH: EVQLLESGGGLVQPGGSLRLSCAFSGFSLSTFGMGVGWVRQAPGKGLEWVSHIWWDDDKYYHPALKGRFTISKDNSKNTVYLQMNSLRAEDTAVYYCGRNHFPHYYGSSHWYFNVWGQGTTVTVSS
VL: EIVMTQSPATLSLSPGERATLSCKASQDINSYLSWYQQKPGQAPRLLIYRANRLVDGIPARFSGSGSGTDYTLTISSLEPEDFAVYYCLQYDEFPYTFGGGTKVEIK
modifications: Synthetic SRP2060-E10, VH; Synthetic H6D1-LC4, VL
Biacore kinetics ka [10]: 582000 M⁻¹ s⁻¹ | Biacore kinetics kd [10]: 0.0012 s⁻¹ | Igrov 2° Antibody Cell Killing, Nb-SC239 span [11]: 68% | EC50 [11]: 0.061 nM

B2: SRP2060-E05: affinity-matured humanized 6D1; VH SEQ ID NO 364; VL H6D1-LC4 SEQ ID NO 368 (antibody, V domains shown)
VH: B1 VH with I71V
VL: B1 VL
modifications: Synthetic SRP2060-E05, VH; Synthetic H6D1-LC4, VL
Biacore kinetics ka [10]: 541000 M⁻¹ s⁻¹ | Biacore kinetics kd [10]: 0.00158 s⁻¹ | Igrov 2° Antibody Cell Killing, Nb-SC239 span [11]: 71% | EC50 [11]: 0.22 nM

B3: SRP2060-A06 (antibody, V domains shown)
VH: B1 VH with S51G, H62Y, N114D
VL: DIQMTQSPSTLSASVGDRVTITCKASQDINSYLSWYQQKPGKAPKLLIYRANRLVDGVPSRFSGSGSGTEFTLTISSLQPDDFATYYCLQYDEFPYTFGGGTKVEIK
Biacore kinetics ka [10]: 547000 M⁻¹ s⁻¹ | Biacore kinetics kd [10]: 0.00729 s⁻¹ | Igrov 2° Antibody Cell Killing, Nb-SC239 span [11]: 66% | EC50 [11]: 0.013 nM

B4: SRP2060-B01 (antibody, V domains shown)
VH: B1 VH with F24L, P43T, Y81H
VL: B3 VL
Biacore kinetics ka [10]: 561000 M⁻¹ s⁻¹ | Biacore kinetics kd [10]: 0.00147 s⁻¹ | Igrov 2° Antibody Cell Killing, Nb-SC239 span [11]: 76% | EC50 [11]: 0.045 nM
